Experimental data reported in patent publication US10251408B2, “Catechin function enhancement method” (KYUSHU UNIVERSITY, NATIONAL UNIVERSITY CORPORATION, priority 2014, dated 2019).

Tests used:
[1] = test system: Human multiple myeloma cell line U266; assay: Cancer cell apoptosis induction, Annexin V/PI flow cytometry; assay type: cell-based; settings: EGCG and eriodictyol 5 μM each, 96 hours, FIG. 1
Protocol: Human multiple myeloma cell line U266 was subcultured and maintained in RPMI 1640 medium supplemented with 10% fetal bovine serum (FCS) under conditions of 37° C. and water vapor-saturated 5% CO2. The cells were maintained in the logarithmic growth phase. The RPMI 1640 medium used for culture was prepared as follows: per liter of ultrapure water, RPMI 1640 medium (10.4 g), HEPES (2.38 g), injectable penicillin G potassium (100,000 units), streptomycin sulfate injectable (100 mg) and NaHCO3 (2.0 g) were suspended and then filter-sterilized.
Then, the RPMI 1640 medium was supplemented with FCS and used for cell culture. To examine the apoptosis induction effect on human multiple myeloma cell line U266 produced upon combination of EGCG and eriodictyol, double staining was performed with Annexin V and PI. For use as a propidium iodide (PI) stain solution, PI (Sigma) was suspended in PBS at a concentration of 50 μg/mL. […]
Then, the fully suspended cell culture was centrifuged at 300×g for 5 minutes to remove the supernatant, and then suspended with the Annexin V binding buffer, counted with a hemacytometer, centrifuged again at 300×g for 5 minutes and then suspended with the Annexin V binding buffer. […] After compensation, the Annexin V Alexa Fluor 488 conjugate was measured at FL 1 and cells determined to be positive were regarded as apoptotic cells. […]

[2] = test system: tail suspension test-induced disuse amyotrophy in mice; assay: Tail suspension test-induced disuse amyotrophy (quadriceps femoris weight); assay type: in vivo, mouse; settings: C57BL/6J mice; 5 mg/kg intragastric once a day; tail suspension for 10 days from day 7; FIG. 4
Protocol: Male C57BL/6J mice at 12 weeks of age were divided into 5 groups such that the average body weight was equal in all groups, i.e., a GR (ground) group, a TS (tail suspension) group, an EGCG group, an eriodictyol group, and an EGCG+eriodictyol group. From the beginning of grouping, the GR and TS groups received physiological saline, the EGCG group received EGCG and the eriodictyol group received eriodictyol (5 mg/kg) by intragastric administration, while the EGCG+eriodictyol group received EGCG and eriodictyol (5 mg/kg) by intragastric administration through a sonde. For 7 days from the beginning of grouping, all the groups were kept under normal conditions, and the TS, EGCG, eriodictyol, and EGCG+eriodictyol groups were then subjected to a tail suspension test. After the tail suspension test for 10 days (at 17 days after initiation of the experiment), all the mice were sacrificed by abdominal aortic puncture under isoflurane anesthesia, and the quadriceps femoris was excised from each mouse and measured for its weight. Each sample was administered daily throughout the experimental period. […] At 10 days after starting the tail suspension test, the mice were sacrificed by abdominal aortic puncture under isoflurane anesthesia, and the quadriceps femoris was excised from each mouse and measured for its weight.

[3] = test system: low density lipoprotein receptor (LDLR); assay: Liver LDLR mRNA by real-time PCR in HF/HS diet-fed mice; assay type: in vivo, mouse; settings: HF/HS diet-fed C57BL/6J mice; Yabukita 0.2% and/or eriodictyol 0.45 g/kg diet; 8 weeks; FIG. 6
Description: Male C57BL/6J mice at 12 weeks of age were preliminarily kept for 1 week and then divided into 5 groups such that the average body weight was equal in all groups, i.e., a control (AIN-93G-based diet) group, a HF/HS (high-fat high-sucrose diet) group, a Yabukita (0.2%) (HF/HS+Yabukita) group, an eriodictyol (HF/HS+eriodictyol) group, and a Yabukita+eriodictyol (HF/HS+Yabukita+eriodictyol) group. A feed supplemented with Yabukita (0.2%) and eriodictyol (0.45 g/kg diet) was given to the mice. The feed was given in an amount of 4 g/day and the mice were kept for 8 weeks under ad libitum drinking conditions. After being fasted for 16 hours, the mice were sacrificed by abdominal aortic puncture under isoflurane anesthesia. […] Yabukita and eriodictyol were examined for their effect on cholesterol metabolism-related gene expression in the liver of high-fat high-sucrose diet-fed obese model mice. C57BL/6J mice were preliminarily kept for 1 week and then divided into the respective groups such that the average body weight was equal in all groups. Each feed was given in an amount of 4 g/day and the mice were kept for 8 weeks under ad libitum drinking conditions. After being fasted for 16 hours, the mice were sacrificed by abdominal aortic puncture under isoflurane anesthesia.

O=C1C[C@@H](c2ccc(O)c(O)c2)Oc2cc(O)cc(O)c21 [eriodictyol]
effect on the cancer cell apoptosis induction effect of EGCG (Annexin V positive cells) [1]: enhance the apoptosis induction effect of EGCG | effect on amyotrophy (quadriceps femoris weight) [2]: no effect on amyotrophy | mRNA expression level of LDLR in the liver [3]: no effect
